Experiments:
[1] = tested on: Tyrosine-protein kinase ABL1 (Homo sapiens), P00519 [F317I]; settings: Compound concentration 1000.0 nM
[2] = target: Ribosomal protein S6 kinase alpha-1 (Homo sapiens) (UniProt Q15418); settings: Compound concentration 1000.0 nM
[3] = target: Ephrin type-A receptor 6 (Homo sapiens) (UniProt Q9UF33); settings: Compound concentration 1000.0 nM
[4] = target: Cyclin-dependent kinase 16 (Homo sapiens) (UniProt Q00536); settings: Compound concentration 1000.0 nM
[5] = target: Ribosomal protein S6 kinase alpha-3 (Homo sapiens) (UniProt P51812); settings: Compound concentration 1000.0 nM
[6] = target: Serine/threonine-protein kinase MARK2 (Homo sapiens) (UniProt Q7KZI7); settings: Compound concentration 1000.0 nM
[7] = target: Mast/stem cell growth factor receptor Kit (Homo sapiens) (UniProt P10721); settings: Compound concentration 1000.0 nM
[8] = tested on: Mast/stem cell growth factor receptor Kit (Homo sapiens), P10721 [V559D,V654A]; settings: Compound concentration 1000.0 nM
[9] = target: Muscle, skeletal receptor tyrosine-protein kinase (Homo sapiens) (UniProt O15146); settings: Compound concentration 1000.0 nM
[10] = target: Tyrosine-protein kinase HCK (Homo sapiens) (UniProt P08631); settings: Compound concentration 1000.0 nM
[11] = target: Ribosomal protein S6 kinase alpha-3 (Homo sapiens) (UniProt P51812); settings: Compound concentration 1000.0 nM; remark: listed apart in the source
[12] = target: Serine/threonine-protein kinase 3 (Homo sapiens) (UniProt Q13188); settings: Compound concentration 1000.0 nM
[13] = target: G protein-coupled receptor kinase 4 (Homo sapiens) (UniProt P32298); settings: Compound concentration 1000.0 nM
[14] = target: Receptor-interacting serine/threonine-protein kinase 2 (Homo sapiens) (UniProt O43353); settings: Compound concentration 1000.0 nM
[15] = target: Serine/threonine-protein kinase Nek11 (Homo sapiens) (UniProt Q8NG66); settings: Compound concentration 1000.0 nM
[16] = target: Calcium-dependent protein kinase 1 (Plasmodium falciparum) (UniProt P62344); settings: Compound concentration 1000.0 nM
[17] = target: Cyclin-dependent kinase 15 (Homo sapiens) (UniProt Q96Q40); settings: Compound concentration 1000.0 nM
[18] = target: Cyclin-dependent kinase 13 (Homo sapiens) (UniProt Q14004); settings: Compound concentration 1000.0 nM
[19] = target: Cyclin-G-associated kinase (Homo sapiens) (UniProt O14976); settings: Compound concentration 1000.0 nM
[20] = target: Ribosomal protein S6 kinase alpha-1 (Homo sapiens) (UniProt Q15418); settings: Compound concentration 1000.0 nM; remark: listed apart in the source
[21] = target: LIM domain kinase 1 (Homo sapiens) (UniProt P53667); settings: Compound concentration 1000.0 nM
[22] = target: Macrophage colony-stimulating factor 1 receptor (Homo sapiens) (UniProt P07333); settings: Compound concentration 1000.0 nM
[23] = target: Tyrosine-protein kinase Lck (Homo sapiens) (UniProt P06239); settings: Compound concentration 1000.0 nM
[24] = target: Serine/threonine-protein kinase 4 (Homo sapiens) (UniProt Q13043); settings: Compound concentration 1000.0 nM
[25] = target: Aurora kinase A (Homo sapiens) (UniProt O14965); settings: Compound concentration 1000.0 nM
[26] = target: RAC-alpha serine/threonine-protein kinase (Homo sapiens) (UniProt P31749); settings: Compound concentration 1000.0 nM
[27] = target: Discoidin domain-containing receptor 2 (Homo sapiens) (UniProt Q16832); settings: Compound concentration 1000.0 nM
[28] = target: Serine/threonine-protein kinase 38-like (Homo sapiens) (UniProt Q9Y2H1); settings: Compound concentration 1000.0 nM
[29] = target: cAMP-dependent protein kinase catalytic subunit PRKX (Homo sapiens) (UniProt P51817); settings: Compound concentration 1000.0 nM
[30] = tested on: Phosphatidylinositol 4,5-bisphosphate 3-kinase catalytic subunit alpha isoform (Homo sapiens), P42336 [Q546K]; settings: Compound concentration 1000.0 nM
[31] = target: Serine/threonine-protein kinase Nek5 (Homo sapiens) (UniProt Q6P3R8); settings: Compound concentration 1000.0 nM
[32] = target: Serine/threonine-protein kinase BRSK1 (Homo sapiens) (UniProt Q8TDC3); settings: Compound concentration 1000.0 nM
[33] = target: Mitogen-activated protein kinase kinase kinase 10 (Homo sapiens) (UniProt Q02779); settings: Compound concentration 1000.0 nM
[34] = tested on: Mast/stem cell growth factor receptor Kit (Homo sapiens), P10721 [D816V]; settings: Compound concentration 1000.0 nM
[35] = target: Phosphatidylinositol 4,5-bisphosphate 3-kinase catalytic subunit beta isoform (Homo sapiens) (UniProt P42338); settings: Compound concentration 1000.0 nM
[36] = target: Serine/threonine-protein kinase SIK2 (Homo sapiens) (UniProt Q9H0K1); settings: Compound concentration 1000.0 nM
[37] = target: Atypical kinase COQ8A, mitochondrial (Homo sapiens) (UniProt Q8NI60); settings: Compound concentration 1000.0 nM
[38] = target: RAC-gamma serine/threonine-protein kinase (Homo sapiens) (UniProt Q9Y243); settings: Compound concentration 1000.0 nM
[39] = target: Calcium/calmodulin-dependent protein kinase type 1 (Homo sapiens) (UniProt Q14012); settings: Compound concentration 1000.0 nM
[40] = target: MAP kinase-activated protein kinase 5 (Homo sapiens) (UniProt Q8IW41); settings: Compound concentration 1000.0 nM
[41] = target: Cyclin-dependent kinase-like 1 (Homo sapiens) (UniProt Q00532); settings: Compound concentration 1000.0 nM
[42] = target: Tyrosine-protein kinase JAK1 (Homo sapiens) (UniProt P23458); settings: Compound concentration 1000.0 nM
[43] = target: Sodium-dependent dopamine transporter (Homo sapiens, UniProt Q01959); settings: Compound concentration 10.0 uM
Rattus norvegicus = species: Rattus norvegicus; settings: Compound concentration 10.0 uM
[44] = target: Focal adhesion kinase 1 (Homo sapiens) (UniProt Q05397); settings: Compound concentration 1000.0 nM
[45] = target: Wee1-like protein kinase (Homo sapiens) (UniProt P30291); settings: Compound concentration 1000.0 nM
Wee1-like protein kinase (Homo sapiens), sequence (P30291 whole entry, looked up): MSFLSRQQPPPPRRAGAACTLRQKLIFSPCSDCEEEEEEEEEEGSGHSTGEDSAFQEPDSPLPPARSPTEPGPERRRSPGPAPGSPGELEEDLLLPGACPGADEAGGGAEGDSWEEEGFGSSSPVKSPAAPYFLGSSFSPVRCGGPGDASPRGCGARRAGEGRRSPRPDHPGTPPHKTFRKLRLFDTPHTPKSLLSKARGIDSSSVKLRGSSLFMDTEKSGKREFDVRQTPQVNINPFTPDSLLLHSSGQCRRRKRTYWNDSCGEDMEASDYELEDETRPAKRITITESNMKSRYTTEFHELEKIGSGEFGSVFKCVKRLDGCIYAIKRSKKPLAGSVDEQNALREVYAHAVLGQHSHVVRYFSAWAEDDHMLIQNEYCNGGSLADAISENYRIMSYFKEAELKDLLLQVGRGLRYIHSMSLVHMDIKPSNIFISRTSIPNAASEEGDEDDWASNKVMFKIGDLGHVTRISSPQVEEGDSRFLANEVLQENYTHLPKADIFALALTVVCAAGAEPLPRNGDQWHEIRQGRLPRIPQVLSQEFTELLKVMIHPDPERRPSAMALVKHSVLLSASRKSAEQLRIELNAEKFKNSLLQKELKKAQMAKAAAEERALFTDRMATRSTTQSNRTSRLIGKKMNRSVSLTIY

Ribosomal protein S6 kinase alpha-3 (Homo sapiens), sequence (P51812 whole entry): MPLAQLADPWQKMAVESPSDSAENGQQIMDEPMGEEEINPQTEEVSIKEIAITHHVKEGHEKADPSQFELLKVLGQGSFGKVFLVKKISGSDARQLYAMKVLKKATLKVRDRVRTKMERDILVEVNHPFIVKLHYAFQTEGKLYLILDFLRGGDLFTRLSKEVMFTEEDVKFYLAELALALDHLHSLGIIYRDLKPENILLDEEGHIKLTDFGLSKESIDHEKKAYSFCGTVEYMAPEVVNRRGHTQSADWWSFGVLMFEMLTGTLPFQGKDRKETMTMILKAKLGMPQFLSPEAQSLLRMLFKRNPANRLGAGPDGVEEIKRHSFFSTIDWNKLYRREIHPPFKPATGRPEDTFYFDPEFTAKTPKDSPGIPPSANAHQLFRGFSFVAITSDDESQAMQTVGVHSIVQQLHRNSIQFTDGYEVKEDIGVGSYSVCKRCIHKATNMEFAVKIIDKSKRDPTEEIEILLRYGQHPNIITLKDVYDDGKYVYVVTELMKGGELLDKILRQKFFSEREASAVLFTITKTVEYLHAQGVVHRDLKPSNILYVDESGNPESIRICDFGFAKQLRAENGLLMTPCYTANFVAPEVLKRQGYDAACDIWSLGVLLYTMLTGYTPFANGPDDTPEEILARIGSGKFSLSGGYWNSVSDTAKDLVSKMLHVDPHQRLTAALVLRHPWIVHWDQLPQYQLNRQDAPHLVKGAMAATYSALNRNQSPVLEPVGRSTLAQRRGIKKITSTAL
Ribosomal protein S6 kinase alpha-1 (Homo sapiens), sequence (Q15418 whole entry, the tested form may be a part): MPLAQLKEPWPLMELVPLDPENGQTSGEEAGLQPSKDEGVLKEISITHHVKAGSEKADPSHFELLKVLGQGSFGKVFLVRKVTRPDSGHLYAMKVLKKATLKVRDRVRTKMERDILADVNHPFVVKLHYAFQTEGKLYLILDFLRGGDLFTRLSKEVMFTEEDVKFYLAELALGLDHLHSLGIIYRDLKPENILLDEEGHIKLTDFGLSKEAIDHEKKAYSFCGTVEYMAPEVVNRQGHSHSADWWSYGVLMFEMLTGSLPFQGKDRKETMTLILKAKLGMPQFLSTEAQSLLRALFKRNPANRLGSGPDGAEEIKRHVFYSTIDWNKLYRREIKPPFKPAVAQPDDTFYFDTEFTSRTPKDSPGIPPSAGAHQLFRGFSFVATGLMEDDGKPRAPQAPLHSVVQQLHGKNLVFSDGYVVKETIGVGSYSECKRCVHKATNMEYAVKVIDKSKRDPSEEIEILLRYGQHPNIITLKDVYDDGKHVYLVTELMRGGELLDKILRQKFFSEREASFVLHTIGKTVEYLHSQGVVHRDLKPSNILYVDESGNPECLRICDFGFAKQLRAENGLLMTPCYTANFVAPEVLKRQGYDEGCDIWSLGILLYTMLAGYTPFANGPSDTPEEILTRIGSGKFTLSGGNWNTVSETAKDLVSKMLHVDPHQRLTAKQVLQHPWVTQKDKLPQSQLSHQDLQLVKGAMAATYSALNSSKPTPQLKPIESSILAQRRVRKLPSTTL
RAC-alpha serine/threonine-protein kinase (Homo sapiens), sequence (P31749 whole entry, the tested form may be a part): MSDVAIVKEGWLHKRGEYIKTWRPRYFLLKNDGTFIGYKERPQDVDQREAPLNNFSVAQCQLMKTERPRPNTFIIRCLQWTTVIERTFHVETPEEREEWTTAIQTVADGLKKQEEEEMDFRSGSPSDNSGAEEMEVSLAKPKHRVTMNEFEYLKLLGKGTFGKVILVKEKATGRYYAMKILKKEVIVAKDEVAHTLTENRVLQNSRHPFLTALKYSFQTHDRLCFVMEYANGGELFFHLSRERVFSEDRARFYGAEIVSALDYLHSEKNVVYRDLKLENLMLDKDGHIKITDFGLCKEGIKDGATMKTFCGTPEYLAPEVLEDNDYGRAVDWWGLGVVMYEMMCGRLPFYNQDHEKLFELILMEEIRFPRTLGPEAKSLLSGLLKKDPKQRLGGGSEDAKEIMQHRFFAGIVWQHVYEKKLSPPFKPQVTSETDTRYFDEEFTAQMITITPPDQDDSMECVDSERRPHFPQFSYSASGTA
Ephrin type-A receptor 6 (Homo sapiens), sequence (Q9UF33 whole entry): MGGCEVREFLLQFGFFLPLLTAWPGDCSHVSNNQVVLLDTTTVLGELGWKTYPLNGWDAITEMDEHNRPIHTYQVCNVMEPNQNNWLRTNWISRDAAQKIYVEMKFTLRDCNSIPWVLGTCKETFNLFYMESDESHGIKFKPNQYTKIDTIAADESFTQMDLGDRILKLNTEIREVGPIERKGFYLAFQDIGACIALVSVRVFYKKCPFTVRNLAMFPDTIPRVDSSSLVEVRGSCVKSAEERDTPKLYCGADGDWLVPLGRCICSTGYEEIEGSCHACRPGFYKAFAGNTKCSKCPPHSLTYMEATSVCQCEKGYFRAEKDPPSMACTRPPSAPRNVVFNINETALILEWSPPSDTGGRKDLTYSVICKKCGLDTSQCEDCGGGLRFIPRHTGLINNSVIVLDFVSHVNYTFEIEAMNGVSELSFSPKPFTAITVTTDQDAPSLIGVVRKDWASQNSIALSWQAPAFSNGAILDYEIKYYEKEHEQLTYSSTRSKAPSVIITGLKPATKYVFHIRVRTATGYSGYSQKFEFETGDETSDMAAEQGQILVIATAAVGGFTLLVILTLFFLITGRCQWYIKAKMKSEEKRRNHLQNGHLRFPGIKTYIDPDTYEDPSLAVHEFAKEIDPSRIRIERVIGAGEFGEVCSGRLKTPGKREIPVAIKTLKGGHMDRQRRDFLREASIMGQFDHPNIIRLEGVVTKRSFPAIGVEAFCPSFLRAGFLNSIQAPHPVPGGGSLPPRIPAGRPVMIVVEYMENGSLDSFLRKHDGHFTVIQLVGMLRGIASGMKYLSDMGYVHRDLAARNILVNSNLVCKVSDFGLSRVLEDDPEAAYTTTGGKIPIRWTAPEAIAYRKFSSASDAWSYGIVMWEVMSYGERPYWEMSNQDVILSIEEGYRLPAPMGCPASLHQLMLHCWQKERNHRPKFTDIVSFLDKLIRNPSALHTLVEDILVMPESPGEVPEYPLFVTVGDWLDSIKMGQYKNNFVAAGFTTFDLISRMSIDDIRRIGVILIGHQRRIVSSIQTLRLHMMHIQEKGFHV
RAC-gamma serine/threonine-protein kinase (Homo sapiens), sequence (Q9Y243 whole entry): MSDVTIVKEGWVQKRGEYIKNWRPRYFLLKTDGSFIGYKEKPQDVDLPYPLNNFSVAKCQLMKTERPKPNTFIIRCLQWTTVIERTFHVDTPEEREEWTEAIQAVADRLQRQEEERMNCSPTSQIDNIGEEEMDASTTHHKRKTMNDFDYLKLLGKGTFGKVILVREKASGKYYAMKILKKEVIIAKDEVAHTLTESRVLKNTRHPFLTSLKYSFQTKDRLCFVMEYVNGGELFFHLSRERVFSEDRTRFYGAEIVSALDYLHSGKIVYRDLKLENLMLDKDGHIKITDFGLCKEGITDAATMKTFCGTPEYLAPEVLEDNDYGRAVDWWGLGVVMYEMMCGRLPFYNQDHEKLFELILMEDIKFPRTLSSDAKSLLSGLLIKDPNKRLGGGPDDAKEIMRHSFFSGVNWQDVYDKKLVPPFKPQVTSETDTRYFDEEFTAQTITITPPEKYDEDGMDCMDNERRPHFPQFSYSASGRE
Calcium-dependent protein kinase 1 (Plasmodium falciparum), sequence (P62344 2-524 limits assumed): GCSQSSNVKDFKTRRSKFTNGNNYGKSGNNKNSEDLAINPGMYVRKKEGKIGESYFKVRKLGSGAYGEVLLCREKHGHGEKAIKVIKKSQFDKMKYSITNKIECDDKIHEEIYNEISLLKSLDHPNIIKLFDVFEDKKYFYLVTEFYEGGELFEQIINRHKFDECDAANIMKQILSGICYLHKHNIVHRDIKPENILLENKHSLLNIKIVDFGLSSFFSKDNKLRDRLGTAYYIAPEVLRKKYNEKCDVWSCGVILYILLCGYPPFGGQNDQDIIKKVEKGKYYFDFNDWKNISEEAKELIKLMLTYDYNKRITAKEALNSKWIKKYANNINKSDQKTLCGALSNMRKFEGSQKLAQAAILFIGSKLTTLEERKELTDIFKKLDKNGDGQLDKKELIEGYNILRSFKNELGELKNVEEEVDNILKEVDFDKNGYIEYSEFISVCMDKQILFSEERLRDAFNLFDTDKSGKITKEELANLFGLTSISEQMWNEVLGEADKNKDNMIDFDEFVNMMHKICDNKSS
Aurora kinase A (Homo sapiens), sequence (O14965 whole entry): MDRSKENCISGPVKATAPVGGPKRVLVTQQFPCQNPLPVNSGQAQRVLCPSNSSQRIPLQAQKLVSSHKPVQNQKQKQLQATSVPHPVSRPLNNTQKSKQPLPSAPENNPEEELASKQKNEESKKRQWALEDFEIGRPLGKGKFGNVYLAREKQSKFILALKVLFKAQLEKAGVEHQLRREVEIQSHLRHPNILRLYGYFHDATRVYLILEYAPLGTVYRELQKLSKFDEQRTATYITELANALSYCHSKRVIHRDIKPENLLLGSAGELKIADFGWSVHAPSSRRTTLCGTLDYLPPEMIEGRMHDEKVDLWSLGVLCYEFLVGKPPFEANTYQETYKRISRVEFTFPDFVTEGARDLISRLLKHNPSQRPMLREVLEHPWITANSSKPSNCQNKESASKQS

CC(=O)N1CCC(c2ccc(C(=O)NC(=N)N)cc2C(F)(F)F)CC1 [BI 9627]
inactive: residual activity [1] 96% | residual activity [2] 100% | residual activity [3] 96% | residual activity [4] 91% | residual activity [5] 100% | residual activity [6] 100% | residual activity [7] 95% | residual activity [8] 100% | residual activity [9] 100% | residual activity [10] 100% | residual activity [11] 95% | residual activity [12] 100% | residual activity [13] 100% | residual activity [14] 100% | residual activity [15] 100% | residual activity [16] 87% | residual activity [17] 100% | residual activity [18] 100% | residual activity [19] 100% | residual activity [20] 100% | residual activity [21] 100% | residual activity [22] 85% | residual activity [23] 100% | residual activity [24] 98% | residual activity [25] 87% | residual activity [26] 100% | residual activity [27] 100% | residual activity [28] 99% | residual activity [29] 100% | residual activity [30] 100% | residual activity [31] 100% | residual activity [32] 87% | residual activity [33] 95% | residual activity [34] 100% | residual activity [35] 100% | residual activity [36] 100% | residual activity [37] 96% | residual activity [38] 100% | residual activity [39] 100% | residual activity [40] 100% | residual activity [41] 100% | residual activity [42] 100% | inhibition (Rattus norvegicus) 6.39% | residual activity [44] 100% | residual activity [45] 100%
active: inhibition [43] 77.9%

CC(=O)N1CCC(c2ccc(C(=O)NC3=NCCN3)cc2C(F)(F)F)CC1 [BI 0054]
inactive: residual activity [1] 94% | residual activity [2] 100% | residual activity [3] 98% | residual activity [4] 84% | residual activity [5] 99% | residual activity [6] 100% | residual activity [7] 91% | residual activity [8] 100% | residual activity [9] 90% | residual activity [10] 100% | residual activity [11] 100% | residual activity [12] 100% | residual activity [13] 100% | residual activity [14] 100% | residual activity [15] 100% | residual activity [16] 90% | residual activity [17] 100% | residual activity [18] 100% | residual activity [19] 97% | residual activity [20] 100% | residual activity [21] 100% | residual activity [22] 94% | residual activity [23] 100% | residual activity [24] 100% | residual activity [25] 100% | residual activity [26] 100% | residual activity [27] 96% | residual activity [28] 90% | residual activity [29] 100% | residual activity [30] 100% | residual activity [31] 100% | residual activity [32] 100% | residual activity [33] 100% | residual activity [34] 91% | residual activity [35] 100% | residual activity [36] 100% | residual activity [37] 95% | residual activity [38] 100% | residual activity [39] 100% | residual activity [40] 88% | residual activity [41] 100% | residual activity [42] 100% | inhibition (Rattus norvegicus) -2.17% | residual activity [45] 100%
active: inhibition [43] 87.3% | residual activity [44] 17%
